Assay results taken from patent publication US5726186A, “Pentacyclic compounds, intermediates, processes, compositions, and methods” (Eli Lilly and Company, priority 1996, dated 1998).

Legend:
[1] = system: uterus; experiment: Wet uterine weight in ovariectomized rats (post-menopausal model); format: in vivo, female Sprague Dawley rats (ovariectomized); conditions: Rattus norvegicus, 96 h, oral, daily for 4 days, OVX rats, read-out: Uterine Weight (% increase vs. OVX)
Method: In the examples illustrating the methods, a post-menopausal model was used in which effects of different treatments upon circulating lipids were determined.
(§1) Seventy-five day old female Sprague Dawley rats (weight range of 200 to 225 g) were obtained from Charles River Laboratories (Portage, Mich.). The animals were either bilaterally ovariectomized (OVX) or exposed to a Sham surgical procedure at Charles River Laboratories, and then shipped after one week. Upon arrival, they were housed in metal hanging cages in groups of 3 or 4 per cage and had ad libitum access to food (calcium content approximately 0.5%) and water for one week. Room temperature was maintained at 22.2°±1.7° C. with a minimum relative humidity of 40%. The photoperiod in the room was 12 hours light and 12 hours dark.
(§2) Dosing Regimen Tissue Collection. After a one week acclimation period (therefore, two weeks post-OVX) daily dosing with test compound was initiated. 17a-ethynyl estradiol or the test compound were given orally, unless otherwise stated, as a suspension in 1% carboxymethylcellulose or dissolved in 20% cyclodextrin. Animals were dosed daily for 4 days. Following the dosing regimen, animals were weighed and anesthetized with a ketamine: Xylazine (2:1, V:V) mixture and a blood sample was collected by cardiac puncture. The animals were then sacrificed by asphyxiation with CO2, the uterus was removed through a midline incision, and a wet uterine weight was determined.
(§3) The data presented in the Tables 1 below reflects the response of 5 to 6 rats per treatment.

[2] = system: Uterine Eosinophil Peroxidase (EPO); experiment: Uterine Eosinophil Peroxidase (EPO) Assay; format: in vivo, female Sprague Dawley rats (ovariectomized); parameters: Uterine EPO (V. max): unit not given here; conditions: oral, daily for 4 days, OVX rats, 450 nm
Excerpt: as §1, §2
Uterine Eosinophil Peroxidase (EPO) Assay. Uteri were kept at 4° C. until time of enzymatic analysis. The uteri were then homogenized in 50 volumes of 50 mM Tris buffer (pH-8.0) containing 0.005% Triton X-100. Upon addition of 0.01% hydrogen peroxide and 10 mM O-phenylenediamine (final concentrations) in Tris buffer, increase in absorbance was monitored for one minute at 450 nm. The presence of eosonophils in the uterus is an indication of estrogenic activity of a compound. The maximal velocity of a 15 second interval was determined over the initial, linear portion of the reaction curve.
As is expressed in the below data, estrogenicity also was assessed by evaluating the adverse response of eosinophil infiltration into the uterus.
as §3

[3] = system: Serum Cholesterol; experiment: Serum cholesterol analysis in ovariectomized rats; format: in vivo, female Sprague Dawley rats (ovariectomized); conditions: Rattus norvegicus, 96 h, oral, daily for 4 days, OVX rats, read-out: Serum Cholesterol (% decrease vs. OVX)
Excerpt: as §1, §2
Cholesterol Analysis. Blood samples were allowed to clot at room temperature for 2 hours, and serum was obtained following centrifugation for 10 minutes at 3000 rpm. Serum cholesterol was determined using a Boehringer Mannheim Diagnostics high performance cholesterol assay. Briefly the cholesterol was oxidized to cholest-4-en-3-one and hydrogen peroxide. The hydrogen peroxide was then reacted with phenol and 4-aminophenazone in the presence of peroxidase to produce a p-quinone imine dye, which was read spectrophotemetrically at 500 nm. Cholesterol concentration was then calculated against a standard curve. The entire assay was automated using a Biomek Automated Workstation.
as §3

[4] = system: Distal Femur Metaphysis; experiment: Osteoporosis test, distal femur metaphysis X-ray image analysis; format: in vivo, female Sprague Dawley rats (ovariectomized); conditions: oral, daily for 35 days, in 20% hydroxypropyl b-cyclodextrin
Excerpt: Seventy-five day old female Sprague Dawley rats (weight range of 200 to 225 g) were obtained from Charles River Laboratories (Portage, Mich.). The animals were either bilaterally ovariectomized (OVX) or exposed to a Sham surgical procedure at Charles River Laboratories, and then shipped after one week. Upon arrival, they were housed in metal hanging cages in groups of 3 or 4 per cage and had ad libitum access to food (calcium content approximately 0.5%) and water for one week. Room temperature was maintained at 22.2°±1.7° C. with a minimum relative humidity of 40%. The photoperiod in the room was 12 hours light and 12 hours dark. Following the General Preparation Procedure, infra, the rats were treated daily for 35 days (6 rats per treatment group) and sacrificed by carbon dioxide asphyxiation on the 36th day. The 35 day time period was sufficient to allow maximal reduction in bone density, measured as described herein. At the time of sacrifice, the uteri were removed, dissected free of extraneous tissue, and the fluid contents were expelled before determination of wet weight in order to confirm estrogen deficiency associated with complete ovariectomy. […] The uteri were then placed in 10% neutral buffered formalin to allow for subsequent histological analysis. The right femurs were excised and digitilized x-rays generated and analyzed by an image analysis program (NIH image) at the distal metaphysis. The proximal aspect of the tibiae from these animals were also scanned by quantitative computed tomography. In accordance with the above procedures, compounds of the present invention and ethynyl estradiol (EE2) in 20% hydroxypropyl b-cyclodextrin were orally administered to test animals. Distal femur metaphysis data presented in Tables 2 and 3 below are the results of formula I compound treatments compared to intact and ovariectomized test animals. Results are reported as percent protection relative to ovariectomy.

[5] = system: MCF-7 breast adenocarcinoma cells; experiment: MCF-7 Proliferation Assay (tritiated thymidine); format: cell-based; conditions: Homo sapiens, MCF7; MCF-7 cells, 48 hours, tritiated thymidine pulse 4 hours
Method: MCF-7 breast adenocarcinoma cells (ATCC HTB 22) were maintained in MEM (minimal essential medium, phenol red-free, Sigma, St. Louis, Mo.) supplimented with 10% fetal bovine serum […] (V/V), L-glutamine (2 mM), sodium pyruvate (1 mM), HEPES {(N-[2-hydroxyethyl]piperazine-N'-[2-ethanesulfonic acid]10 mM)}, non-essential amino acids and bovine insulin (1 ug/mL) (maintenance medium). Ten days prior to assay, MCF-7 cells were switched to maintenance medium supplemented with 10% dextran coated charcoal stripped fetal bovine serum (DCC-FBS) assay medium) in place of 10% FBS to deplete internal stores of steroids. MCF-7 cells were removed from maintenance flasks using cell dissociation medium (Ca++/Mg++ free HBSS (phenol red-free) supplemented with 10 mM HEPES and 2 mM EDTA). Cells were washed twice with assay medium and adjusted to 80,000 cells/mL. Approximately […] (8,000 cells) were added to flat-bottom microculture wells (Costar 3596) and incubated at 37° C. in a 5% CO2 humidified incubator for 48 hours to allow for cell adherence and equilibration after transfer. Serial dilutions of drugs or DMSO as a diluent control were prepared in assay medium and […] to triplicate microcultures followed by […] assay medium for a final volume of […]. After an additional 48 hours at 37° C. in a 5% CO2 humidified incubator, microcultures were pulsed with tritiated thymidine (1 uCi/well) for 4 hours. Cultures were terminated by freezing at -70° C. for 24 hours followed by thawing and harvesting of microcultures using a Skatron Semiautomatic Cell Harvester. Samples were counted by liquid scintillation using a Wallac BetaPlace b counter. Results in Table 3 below show the IC50 for certain compounds of the present invention.

SMILES | change in vivo at 0.1 mg/kg [1] | change in vivo at 1 mg/kg [1] | change in vivo at 10 mg/kg [1] | Uterine EPO (V. max) ([2]; 0.1 mg/kg) | Uterine EPO (V. max) ([2]; 1.0 mg/kg) | Uterine EPO (V. max) ([2]; 10.0 mg/kg) | inhibition in vivo at 0.1 mg/kg [3] | inhibition in vivo at 1 mg/kg [3] | inhibition in vivo at 10 mg/kg [3] | Distal Femur Metaphysis (X-ray Image Analysis-Gray Score), percent protection relative to ovariectomy ([4]; 0.01 mg/kg) | Distal Femur Metaphysis (X-ray Image Analysis-Gray Score), percent protection relative to ovariectomy ([4]; 0.1 mg/kg) | Distal Femur Metaphysis (X-ray Image Analysis-Gray Score), percent protection relative to ovariectomy ([4]; 1.0 mg/kg) | Distal Femur Metaphysis (X-ray Image Analysis-Gray Score), percent protection relative to ovariectomy ([4]; 10.0 mg/kg) | IC50 [5] | change in vivo at 0.01 mg/kg ([1]; 0.01 mg/kg) | Uterine EPO (V. max) ([2]; 0.01 mg/kg) | inhibition in vivo at 0.01 mg/kg ([3]; 0.01 mg/kg)
Oc1ccc2c(c1)OC(c1ccc(OCCN3CCCCC3)cc1)c1c-2sc2cc(O)ccc12 (stereo not drawn) [Example 1, 3,9-Dihydroxy-6-[4-[2-(1-piperidinyl)ethoxy]phenyl]-6-H-[1]benzothieno[3,2-c][1]benzopyran] | 25.3% | 9.2% | 5.9% | 7.8 | 3.0 | 2.1 | 72.8% | 51% | 54.6% | 14.2% | 49.8% | 51.7% | 48.2% | 0.2 nM | – | – | –
CCCCS(=O)(=O)Oc1ccc2c(c1)OC(c1ccc(OCCN3CCCCC3)cc1)c1c-2sc2cc(OS(=O)(=O)CCCC)ccc12 (stereo not drawn) [Example 5, 3,9-Bis(1-butylsulfonyloxy)-6-[4-[2-(1-piperidinyl)ethoxy]phenyl]-6-H-[1]benzothieno[3,2-c][1]benzopyran] | -5.1% | 18.6% | – | 4.5 | 4.8 | – | -9% | 61.3% | – | – | – | – | – | 1000 nM | – | – | –
O=S(=O)(Oc1ccc2c(c1)OC(c1ccc(OCCN3CCCCC3)cc1)c1c-2sc2cc(OS(=O)(=O)C(F)(F)F)ccc12)C(F)(F)F (stereo not drawn) [Example 6, 3,9-Bis(trifluoromethanesulfonyloxy)-6-[4-[2-(1-piperidinyl)ethoxy]phenyl]-6-H-[1]benzothieno[3,2-c][1]benzopyran] | 23% | 6.4% | 50% | 4.2 | 1.8 | 3.6 | -2.5% | 9.9% | -11.4% | – | – | – | – | 500 nM | – | – | –
Oc1ccc2c(c1)OC(c1ccc(OCCN3CCCCC3)cc1)c1c-2oc2cc(O)ccc12 (stereo not drawn) [Example 11, 3,9-Dihydroxy-6-[4-[2-(1-piperidinyl)ethoxy]phenyl]-6-H-benzofuro[3,2-c][1]benzopyran] | -8.8% | 3% | -12.6% | 2.7 | 4.2 | 4.2 | 17.4% | 30.9% | 36.3% | – | – | – | – | 0.7 nM | – | – | –
Oc1ccc2c(c1)CN(c1ccc(OCCN3CCCCC3)cc1)c1c-2ccc2cc(O)ccc12 [Example 14, 2,8-Dihydroxy-5-[4-[2-(1-piperidinyl)ethoxy]phenyl]-6H-benzo[c]phenanthridine] | 60% | 49.1% | – | 5.4 | 36.0 | – | 59.5% | 60.7% | – | – | – | – | – | 1 nM | -0.6% | 2.7 | 24.8%
